The target in the test is T1, human TREM2 (Homo sapiens, UniProt Q9NZC2).
T1 construct: expressed in transfected cells; host or cells: HEK293T-hTREM2 cells (HEK cell line expressing human TREM2 and DAP12)
The experiment in a line: TREM2 agonist potency by cellular phosphorylation of Syk (AlphaLisa) in HEK293T-hTREM2 cells expressing human TREM2 and DAP12. The format is cell-based. To be noted: HEK293 cells expressing hTREM2 and DAP12; 45 minutes at room temperature; Syk phosphorylation, AlphaLisa; read-out: hTREM2 EC50. As for the experimental part:
In vitro Measurement of Triggering Receptor Expressed on Myeloid Cells 2 activity using cellular phosphorylation of Spleen Tyrosine Kinase (“Syk”) Assays
Measurement of TREM2 agonist potency was done using a HEK cell line expressing human TREM2 and DAP12 (HEK293T-hTREM2 cells). Binding of small molecules to, and activation of, TREM2 increases the phosphorylation of Syk. The resultant levels of Syk phosphorylation are measured using a commercial AlphaLisa reagent kit. To perform the assay, HEK-hTREM2 cells were plated at 14,000 cells per well in a 384 well plate, in 25 μL of complete growth media and incubated at 37° C., 5% CO2 for 20-24 hours.
Prior to the assay, test compounds were diluted in the 384 well plates in assay buffer and allowed to equilibrate for 30 minutes. Growth media was removed from cell plates by inversion on blotting paper, and 25 μL of test articles in assay buffer was added to cells. Cells were incubated for 45 minutes at room temperature. After 45 minutes, assay buffer was removed and 10 μL of lysis buffer was added. Plates were shaken for 20 minutes at 350 RPM at room temperature. After complete lysis, AlphaLisa reagents were added to the lysate, and fluourescence intensity was measured using a Perkin Elmer Envision plate reader. Intensities were used to generate a standard curve, and % activation was calculated. Curve fitting was performed using Prism v9 software, log(agonist) vs response—variable slope (four parameters), and EC50s were calculated from the curve fit.
The results presented in Table B have been generated with the in vitro assay described above. This assay may be used to test any of the compounds described herein to assess and characterize a compound's ability to act as an agonist of TREM2.

Where only a bound is given, the exact number is not on record here.

T1 sequence (Q9NZC2 19-230): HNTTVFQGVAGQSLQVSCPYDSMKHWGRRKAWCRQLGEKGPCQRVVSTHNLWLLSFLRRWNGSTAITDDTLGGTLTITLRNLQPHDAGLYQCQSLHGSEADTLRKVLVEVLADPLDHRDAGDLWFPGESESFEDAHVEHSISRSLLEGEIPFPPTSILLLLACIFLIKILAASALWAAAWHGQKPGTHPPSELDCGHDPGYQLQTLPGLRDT
T1 sequence (O43914 22-113 partner): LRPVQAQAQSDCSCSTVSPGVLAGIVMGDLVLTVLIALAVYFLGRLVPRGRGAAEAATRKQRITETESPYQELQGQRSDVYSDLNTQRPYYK

Turning to `Cc1noc(-c2cc3c(-c4ccc(F)cc4F)nc([C@H]4CCO[C@@H](c5cnn(C6CC6)c5)C4)nc3nc2C)n1` (racemic) [Example 19, 5-[4-(2,4-difluorophenyl)-7-methyl-2-[rac-(2R,4S)-2-(1-cyclopropylpyrazol-4-yl)-tetrahydropyran-4-yl]pyrido[2,3-d]pyrimidin-6-yl]-3-methyl-1,2,4-oxadiazole], the EC50 – broadly, the concentration needed to bring the measured effect to its halfway point – was less than 100 nM. The figure for `Cc1nc2nc([C@H]3CCO[C@@H](c4cn(C)c(=O)s4)C3)nc(C34CC(C(F)(F)F)(C3)C4)c2cc1C#N` (racemic) [Example 81, 7-methyl-2-[rac-(2R,4S)-2-(3-methyl-2-oxo-thiazol-5-yl)tetrahydropyran-4-yl]-4-[3-(trifluoromethyl)-1-bicyclo[1.1.1]pentanyl]pyrido[2,3-d]pyrimidine-6-carbonitrile] is less than 100 nM; for `Cc1nc2nc(N3C[C@@H](C)O[C@@H](c4cnn(C5CC5)c4)C3)nc(C34CC(C(F)(F)F)(C3)C4)c2cc1C(F)(F)Cl` (racemic) [Example 90, (2S,6R)-4-(6-(chloro-difluoromethyl)-7-methyl-4-(3-(trifluoromethyl)-bicyclo[1.1.1]pentan-1-yl)pyrido[2,3-d]pyrimidin-2-yl)-2-(1-cyclopropyl-1H-pyrazol-4-yl)-6-methylmorpholine] it is 100 to 500 nM; for `Cc1nc2nc([C@H]3CCO[C@@H](c4cn(C)c(=O)s4)C3)nc(C34CC(C(F)(F)F)(C3)C4)c2nc1C` (racemic) [Example 106, 3-methyl-5-[rac-(2R,4S)-4-[6,7-dimethyl-4-[3-(trifluoromethyl)-1-bicyclo[1.1.1]pentanyl]-pteridin-2-yl]tetrahydropyran-2-yl]thiazol-2-one] it is less than 100 nM. Then `COc1ncc([C@H]2C[C@@H](c3nc(C45CC(C(F)(F)F)(C4)C5)c4nc(C)c(C)nc4n3)CCO2)s1` (racemic) [Example 117, 2-methoxy-5-[rac-(2R,4S)-4-[6,7-dimethyl-4-[3-(trifluoromethyl)-1-bicyclo[1.1.1]pentanyl]pteridin-2-yl]tetrahydropyran-2-yl]thiazole], with less than 100 nM. Then `Cc1nc2nc([C@H]3CCO[C@@H](c4ccnc(N(C)C)c4)C3)nc(C34CC(C(F)(F)F)(C3)C4)c2nc1C` (racemic) [Example 124, N,N-dimethyl-4-[rac-4-[6,7-dimethyl-4-[3-(trifluoromethyl)-1-bicyclo[1.1.1]pentanyl]pteridin-2-yl]tetrahydropyran-2-yl]pyridin-2-amine], with less than 100 nM; and `Cc1nc2nc([C@@H]3CCO[C@@H](c4ccnc(N(C)C)c4)C3)nc(C34CC(C(F)(F)F)(C3)C4)c2nc1C` (racemic) [Example 125, N,N-dimethyl-4-[rac-4-[6,7-dimethyl-4-[3-(trifluoromethyl)-1-bicyclo[1.1.1]pentanyl]pteridin-2-yl]tetrahydropyran-2-yl]pyridin-2-amine], with 100 to 500 nM.

`Cc1nc2nc(C3CCOC(c4cnnc(N(C)C)c4)C3)nc(C34CC(C(F)(F)F)(C3)C4)c2nc1C` (racemic) [Example 129, N,N-dimethyl-5-[rac-cis-4-[6,7-dimethyl-4-[3-(trifluoromethyl)-1-bicyclo[1.1.1]pentanyl]pteridin-2-yl]tetrahydropyran-2-yl]pyridazin-3-amine]: the EC50 was less than 100 nM.

As to `Cc1nc2nc(C3CCOC(c4cnnc(N(C)C)c4)C3)nc(C34CC(C(F)(F)F)(C3)C4)c2nc1C` (racemic) [Example 130, N,N-dimethyl-5-[rac-trans-4-[6,7-dimethyl-4-[3-(trifluoromethyl)-1-bicyclo[1.1.1]pentanyl]pteridin-2-yl]tetrahydropyran-2-yl]pyridazin-3-amine], the EC50 is 100 to 500 nM. For the compound `Cc1nc2nc(N3C[C@@H](C)O[C@@H](c4ccnc(N(C)C)c4)C3)nc(C34CC(C(F)(F)F)(C3)C4)c2nc1C` (racemic) [Example 142, N,N-dimethyl-4-[rac-(2S,6R)-4-[6,7-dimethyl-4-[3-(trifluoromethyl)-1-bicyclo[1.1.1]pentanyl]pteridin-2-yl]-6-methyl-morpholin-2-yl]pyridin-2-amine], the half-maximal effective concentration (EC50) lay in the range of 100 to 500 nM. Then `CO[C@H]1CN(c2nc(-c3ccc(F)cc3F)c3nc(C)c(C)nc3n2)C[C@@H]1c1cn(C2CC2)nn1` (stereo in doubt) [Example 134, 2-[3-(1-cyclopropyl-triazol-4-yl)-4-methoxy-pyrrolidin-1-yl]-4-(2,4-difluorophenyl)-6,7-dimethyl-pteridine formic acid], with 100 to 500 nM; and `COC(=O)c1cc2c(-c3ccc(F)cc3F)nc(N3C[C@@H](C)O[C@@H](c4cnn(C5CC5)c4)C3)nc2nc1C` [Example 1, methyl 2-[(2S,6R)-2-(1-cyclopropylpyrazol-4-yl)-6-methyl-morpholin-4-yl]-4-(2,4-difluorophenyl)-7-methyl-pyrido[2,3-d]pyrimidine-6-carboxylate], with less than 100 nM. The figure for `Cc1nc2nc(N3C[C@@H](C)O[C@@H](c4cnn(C5CC5)c4)C3)nc(-c3ccc(F)cc3F)c2cc1C(=O)N(C)C` [Example 2, 2-((2S,6R)-2-(1-cyclopropyl-1H-pyrazol-4-yl)-6-methylmorpholino)-4-(2,4-difluorophenyl)-N,N-7-trimethylpyrido[2,3-d]pyrimidine-6-carboxamide] is greater than 500 nM; for `Cc1nc2nc(N3C[C@@H](C)O[C@@H](c4cnn(C5CC5)c4)C3)nc(-c3ccc(F)cc3F)c2cc1C(=O)O` [Example 3, 2-[(2S,6R)-2-(1-cyclopropylpyrazol-4-yl)-6-methyl-morpholin-4-yl]-4-(2,4-difluorophenyl)-7-methyl-pyrido[2,3-d]pyrimidine-6-carboxylic acid] it is greater than 500 nM. Then `CC(=O)c1cc2c(-c3ccc(F)cc3F)nc(N3C[C@@H](C)O[C@@H](c4cnn(C5CC5)c4)C3)nc2nc1C` [Example 4, 1-[2-[(2S,6R)-2-(1-cyclopropylpyrazol-4-yl)-6-methyl-morpholin-4-yl]-4-(2,4-difluorophenyl)-7-methyl-pyrido[2,3-d]pyrimidin-6-yl]ethanone], with less than 100 nM; and `CO/N=C(\C)c1cc2c(-c3ccc(F)cc3F)nc(N3C[C@@H](C)O[C@@H](c4cnn(C5CC5)c4)C3)nc2nc1C` [Example 5, 1-[2-[(2S,6R)-2-(1-cyclopropylpyrazol-4-yl)-6-methyl-morpholin-4-yl]-4-(2,4-difluorophenyl)-7-methyl-pyrido[2,3-d]pyrimidin-6-yl]-N-methoxy-ethanimine], with less than 100 nM.

Turning to `Cc1noc(-c2cc3c(-c4ccc(F)cc4F)nc(N4C[C@@H](C)O[C@@H](c5cnn(C6CC6)c5)C4)nc3nc2C)n1` [Example 6, (2S,6R)-2-(1-cyclopropylpyrazol-4-yl)-4-[4-(2,4-difluorophenyl)-7-methyl-6-(3-methyl-1,2,4-oxadiazol-5-yl)-pyrido[2,3-d]pyrimidin-2-yl]-6-methyl-morpholine], the EC50 was less than 100 nM. Then `Cc1nc2nc(N3C[C@@H](C)O[C@@H](c4cnn(C5CC5)c4)C3)nc(-c3ccc(F)cc3F)c2cc1C1=NCCO1` [Example 7, (2S,6R)-2-(1-cyclopropylpyrazol-4-yl)-4-[4-(2,4-difluorophenyl)-6-(4,5-dihydrooxazol-2-yl)-7-methyl-pyrido[2,3-d]pyrimidin-2-yl]-6-methyl-morpholine], with less than 100 nM; and `COC(=O)c1cc2c(-c3ccc(F)cc3F)nc([C@H]3CCO[C@@H](c4cnn(C5CC5)c4)C3)nc2nc1C` [Example 8, methyl 2-((2R,4S)-2-(1-cyclopropyl-1H-pyrazol-4-yl)tetrahydro-2H-pyran-4-yl)-4-(2,4-difluorophenyl)-7-methylpyrido[2,3-d]-pyrimidine-6-carboxylate], with less than 100 nM. Then `Cc1nc2nc([C@H]3CCO[C@@H](c4cnn(C5CC5)c4)C3)nc(-c3ccc(F)cc3F)c2cc1C(=O)O` [Example 9, 4-(2,4-difluorophenyl)-7-methyl-2-[(2R,4S)-2-(1-cyclopropylpyrazol-4-yl)tetrahydropyran-4-yl]pyrido[2,3-d]pyrimidine-6-carboxylic acid], with greater than 500 nM. Then `Cc1nnc(-c2cc3c(-c4ccc(F)cc4F)nc(N4C[C@@H](C)O[C@@H](c5cnn(C6CC6)c5)C4)nc3nc2C)s1` [Example 10, (2S,6R)-2-(1-cyclopropylpyrazol-4-yl)-4-[4-(2,4-difluorophenyl)-7-methyl-6-(5-methyl-1,3,4-thiadiazol-2-yl)pyrido[2,3-d]pyrimidin-2-yl]-6-methyl-morpholine], with less than 100 nM; and `Cc1cc(-c2cc3c(-c4ccc(F)cc4F)nc(N4C[C@@H](C)O[C@@H](c5cnn(C6CC6)c5)C4)nc3nc2C)on1` [Example 11, (2S,6R)-2-(1-cyclopropylpyrazol-4-yl)-4-[4-(2,4-difluorophenyl)-7-methyl-6-(3-methylisoxazol-5-yl)pyrido[2,3-d]pyrimidin-2-yl]-6-methyl-morpholine], with less than 100 nM.

These data come from patent publication US20260327225A1, “HETEROCYCLIC COMPOUNDS AS TRIGGERING RECEPTOR EXPRESSED ON MYELOID CELLS 2 AGONISTS AND METHODS OF USE” (VIGIL NEUROSCIENCE, INC., priority 2023, published 2026).
